One block for each compound: values may come before it.
Experiments:
[1] = system: breast density; conditions: cited from earlier work
[2] = target: T1, estrone sulphatase (Homo sapiens, UniProt P08842); conditions: mammary cancer cell lines; cited from earlier work
T1 construct: estrone sulphatase activity in mammary cancer cell lines
T1 sequence (P08842 22-583): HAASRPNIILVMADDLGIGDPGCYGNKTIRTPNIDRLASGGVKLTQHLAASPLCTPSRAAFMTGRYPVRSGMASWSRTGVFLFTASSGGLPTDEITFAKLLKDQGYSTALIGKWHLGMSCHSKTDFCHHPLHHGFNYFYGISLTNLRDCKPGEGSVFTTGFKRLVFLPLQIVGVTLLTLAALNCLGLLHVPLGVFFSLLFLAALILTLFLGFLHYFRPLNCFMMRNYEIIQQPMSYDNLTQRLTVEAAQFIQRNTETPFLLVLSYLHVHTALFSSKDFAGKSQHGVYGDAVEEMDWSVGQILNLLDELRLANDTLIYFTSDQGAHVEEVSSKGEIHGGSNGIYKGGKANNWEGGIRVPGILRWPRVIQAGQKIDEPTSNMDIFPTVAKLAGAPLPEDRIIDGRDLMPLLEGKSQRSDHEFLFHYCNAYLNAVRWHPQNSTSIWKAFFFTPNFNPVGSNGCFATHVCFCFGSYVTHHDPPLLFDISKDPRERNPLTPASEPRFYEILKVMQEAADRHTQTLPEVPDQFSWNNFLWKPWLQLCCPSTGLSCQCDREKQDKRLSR

[3] = oral tamoxifen; cited from earlier work
[4] = system: p53(−) normal human mammary epithelial cells; conditions: cited from earlier work
[5] = Group 2 (0.5 mg/day gel), seventh day; Group 1 (oral tamoxifen), fifth day; cited from earlier work
[6] = system: rat liver; conditions: cited from earlier work
[7] = Example 1: radioactivity in blood and urine after percutaneous [3H]-labeled drug; conditions: for share of radioactivity in blood: 24 hours after percutaneous [3H]-4-hydroxy tamoxifen
Method: (§1) The patients received [^3H]-labeled drug applied directly on the affected breasts at specified intervals ranging from 12 hours to 7 days before surgery to excise diseased tissue. Breast tissue from three regions: the tumor, tissue immediately surrounding the tumor, and normal tissue, was excised and immediately frozen in liquid nitrogen. Additionally, plasma and urine samples were obtained at scheduled intervals and frozen until analysis.

[8] = Example 1: radioactivity and metabolites in breast tissue after percutaneous [3H]-labeled drug
Method: as §1

[9] = Example 3: plasma pharmacokinetics of 4-hydroxy tamoxifen gel in healthy premenopausal women; conditions: for AUC0-24, Mean ± SD / Cav = AUC0-24/24, Mean ± SD / tmax, Mean ± SD / Cmax, Mean ± SD / t1/2 (range): last administration; for Cmax, Mean ± SD: day 25 of second cycle
Method: Each participant applied the gel daily for the duration of two menstrual cycles.
At the end of a menstrual cycle, each patient received a single dose, after which serial blood samples were collected at 0, 0.5, 1, 1.5, 2, 3, 4, 6, 12, 18, 24, 36, 48, and 72 hours.
On the first day of the following menstruation, treatment, which consisted of daily application of the gel over two menstrual cycles, began. Blood samples were collected 24 hours following the morning application of gel on days 7, 20 and 25 of the first and second cycles. On the last day of administration, day 25 of the second menstrual cycle, serial blood samples were collected prior to application and at 0.5, 1, 1.5, 2, 3, 4, 6, 12, 18, 24, 36, 48, and 72 hours after application of the gel.

[10] = system: estrogen receptors; conditions: in vitro; cited from earlier work
[11] = topical application
[12] = 36 hr after percutaneous trans-[3H]-4-hydroxy tamoxifen
[13] = Day 4 after percutaneous trans-[3H]-4-hydroxy tamoxifen
[14] = Day 7 after percutaneous trans-[3H]-4-hydroxy tamoxifen
[15] = 0.5 mg/day (n = 12), gel 20 mg/100 g
[16] = 1 mg/day (n = 8), gel 20 mg/100 g
[17] = 1 mg/day (n = 12), gel 57 mg/100 g
[18] = 2 mg/day (n = 12), gel 57 mg/100 g
[19] = 12 hr after percutaneous trans-[3H]-4-hydroxy tamoxifen
[20] = 24 hr after percutaneous trans-[3H]-4-hydroxy tamoxifen

Compound: CC/C(=C(\c1ccccc1)c1ccc(OCCN(C)C)cc1)c1ccccc1 [tamoxifen]
- women with decreased breast parenchyma ([1]; 20 mg/day after surgery for breast cancer (Son et al.)): 59.8%
- change of mammographic pattern ([1]; contralateral breasts of postmenopausal breast cancer patients, 20 mg/day): significant change toward a less dense mammographic pattern
- decrease of breast parenchyma in premenopausal women ([1]; premenopausal women, 20 mg/day (Son et al.)): 87%
- effect on estrone sulphatase activity [2]: little or no effect
- side effects reported by patients [3]: hot flashes, vaginal discharge, depression, amenorrhea, and nausea
- initiation of apoptosis [4]: initiates apoptosis
- side effects reported by one person [5]: hot flashes and mild vaginitis
- rat liver carcinogenicity [6]: potent rat liver carcinogen

- time of plateau of radioactivity in blood ([7]; percutaneous application): 2 days
Compound: CC/C(=C(\c1ccccc1)c1ccc(OCCN(C)C)cc1)c1ccccc1 [[^3H]-tamoxifen, reference compound]

- % Metabolites in Breast Tissue [8, 12]: <1%
- % Metabolites in Breast Tissue [8, 13]: <1%
- % Metabolites in Breast Tissue [8, 14]: 3-4%
Compound: CC/C(=C(\c1ccccc1)c1ccc(OCCNC)cc1)c1ccccc1 [N-Desmethyl tamoxifen]

Compound: CC/C(=C(\c1ccc(O)cc1)c1ccc(OCCN(C)C)cc1)c1ccccc1 [4-hydroxy tamoxifen, 1-[4-(2-N-dimethylaminoethoxy)phenyl]-1-(4-hydroxyphenyl)-2-phenylbut-1-(Z)-ene]
- AUC0-24, Mean ± SD [9, 15]: 0.2563 ng·h/mL
- Cav = AUC0-24/24, Mean ± SD [9, 15]: 0.0107 ± 0.0085 ng/mL
- tmax, Mean ± SD [9, 15]: 40 ± 81 h
- Cmax, Mean ± SD [9, 15]: 0.017 ± 0.0085 ng/mL
- AUC0-24, Mean ± SD [9, 16]: 0.3009 ng·h/mL
- Cav = AUC0-24/24, Mean ± SD [9, 16]: 0.0125 ± 0.0079 ng/mL
- tmax, Mean ± SD [9, 16]: 24 ± 18 h
- Cmax, Mean ± SD [9, 16]: 0.021 ± 0.014 ng/mL
- AUC0-24, Mean ± SD [9, 17]: 0.619 ± 0.466 ng·h/mL
- Cav = AUC0-24/24, Mean ± SD [9, 17]: 0.0258 ± 0.0194 ng/mL
- t1/2 (range) [9, 17]: (58-118) hr
- tmax, Mean ± SD [9, 17]: 12.8 ± 14.9 h
- Cmax, Mean ± SD [9, 17]: 0.0351 ± 0.0224 ng/mL
- AUC0-24, Mean ± SD [9, 18]: 0.998 ± 0.653 ng·h/mL
- Cav = AUC0-24/24, Mean ± SD [9, 18]: 0.0416 ± 0.0272 ng/mL
- t1/2 (range) [9, 18]: (49-101) hr
- tmax, Mean ± SD [9, 18]: 11.8 ± 12.3 h
- Cmax, Mean ± SD [9, 18]: 0.0516 ± 0.0317 ng/mL
- detectability in plasma after the last gel application ([9]; in vivo): remained detectable 72 hours after the last gel application
- exposure versus dose ([9]; topical application, 0.5, 1, and 2 mg): increases with dose
- effect on estrone sulphatase activity [2]: significant inhibitory effect
- share of radioactivity in blood [7]: 68%
- urinary elimination compared to percutaneous tamoxifen ([7]; percutaneous administration): Peak urinary elimination occurred at a later time
- binding affinity for estrogen receptors, compared with estradiol [10]: a binding affinity similar to estradiol
- potency as binding affinity to estrogen receptors, compared with tamoxifen [10]: more potency than tamoxifen
- systemic effects [11]: no detectable laboratory or clinical evidence of systemic effects
- % Metabolites in Breast Tissue [8, 19]: 97%
- % Metabolites in Breast Tissue [8, 20]: 94%
- % Metabolites in Breast Tissue [8, 12]: 78%
- % Metabolites in Breast Tissue [8, 13]: 70%
- % Metabolites in Breast Tissue [8, 14]: 65%
- metabolism in intracellular sites of breast tissue ([8]; cytosolic and nuclear fractions): remained unmetabolized except for limited isomerization from the trans to the cis form
- subcellular distribution in breast tissue ([8]; percutaneous application): concentrated predominantly in the cytosolic and nuclear fractions of breast tissue
- retention in the breast ([8]; percutaneous application of [3H]-labeled drug): approximately 4 days

Compound: CC/C(=C(\c1ccc(O)cc1)c1ccc(OCCN(C)C)cc1)c1ccccc1 [Trans 4-hydroxy tamoxifen]
- percentage of radioactivity in breast tissue as isomer of 4-hydroxy tamoxifen ([8]; day 7): 32%

Compound: CC(C)(c1ccc(O)cc1)c1ccc(O)cc1 [Bisphenol]
- share of radioactivity in blood [7]: 11%
- % Metabolites in Breast Tissue [8, 19]: 1%
- % Metabolites in Breast Tissue [8, 20]: 2%
- % Metabolites in Breast Tissue [8, 12]: 3%
- % Metabolites in Breast Tissue [8, 13]: 8%
- % Metabolites in Breast Tissue [8, 14]: 8%

Compound: CCC(=C(c1ccc(O)cc1)c1ccc(OCCNC)cc1)c1ccccc1 [N-Desmethyl-4-Hydroxy Tamoxifen]
- share of radioactivity in blood [7]: 18%
- % Metabolites in Breast Tissue [8, 19]: 2%
- % Metabolites in Breast Tissue [8, 20]: 4%
- % Metabolites in Breast Tissue [8, 12]: 14%
- % Metabolites in Breast Tissue [8, 13]: 20%
- % Metabolites in Breast Tissue [8, 14]: 16%

Source: US7485623B2 (priority 2002, dated 2009)
